Assay results reported in patent US9371331B2, “Modulators of methyl modifying enzymes, compositions and uses thereof” (Constellation Pharmaceuticals, Inc., priority 2012, dated 2016).
Like-named read-outs stand apart in the source and are kept apart here.

How the values were obtained:
[1] = molecular target: Y641N EZH2 (Homo sapiens, UniProt Q15910, Y641N); test: Y641N EZH2 assay: as EZH2 assay, with reconstituted H3K27Me2 oligonucleosomes as substrate; type: biochemical
[2] = molecular target: EZH2 (rPRC2) (Homo sapiens, UniProt Q15910); test: EZH2 assay: rPRC2, biotinylated oligonucleosomes, 3H SAM methyl transfer (FlashPlate scintillation); type: biochemical; settings: biotinylated oligonucleosome substrate
Experimental: Assays were carried out by mixing rPRC2 together with biotinylated oligonucleosome substrates in the presence of the radio-labeled enzyme co-factor, S-adenosyl-1-methionine (^3H SAM) (Perkin Elmer) and monitoring the enzymatically mediated transfer of tritiated methyl groups from ^3H SAM to histone lysine residues. The amount of resulting tritiated methyl histone product was measured by first capturing the biotinylated oligonucleosomes in streptavidin (SAV) coated FlashPlates (Perkin Elmer), followed by a wash step to remove un-reacted ^3H SAM, and then counting on a TopCount NXT 384 well plate scintillation counter (Perkin Elmer). The final assay conditions for EZH2 were as follows: 50 mM Tris Buffer pH 8.5, 1 mM DTT, 69 μM Brij-35 detergent, 5.0 mM MgCl2, 0.1 mg/mL BSA, 0.2 μM ^3H SAM, 0.2 μM biotinylated oligonucleosomes, 3.6 μM H3K27 mc3 peptide and 2 nM EZH2.
A 12.5 μL volume of the HMT enzyme, H3K27me3 peptide and oligonucleosome substrate in assay buffer was added to each well of the assay plate using a Multidrop Combi (ThermoFisher). Compounds were pre-incubated with the enzyme for 20 min, followed by initiation of the methyltransferase reaction by addition of 12.5 μL of ^3H SAM in assay buffer (final volume=25 μL). The final concentrations of compounds ranged from a top default concentration of 80 μM down to 0.16 μM in ten 2-fold dilution steps. Reactions were carried out for 60 minutes and quenched with 20 μL per well of 1.96 mM SAH, 50 mM Tris pH 8.5, 200 mM EDTA. Stopped reactions were transferred to SAV coated Flashplates (Perkin Elmer), incubated for 120 min, washed with a plate washer, and then read on the TopCount NXT (1.0 min/well) to measure the amount of methyl histone product formed during the reaction.

[3] = Y641N EZH2 IC50, Y641N mutant EZH2, H3K27Me2 oligonucleosome substrate
[4] = EZH2 IC50, wild-type EZH2 (rPRC2)
[5] = Y641N mutant EZH2, H3K27Me2 oligonucleosome substrate
[6] = Y641N mutant EZH2, H3K27Me2 oligonucleosome substrate, read-out: Y641N EZH2 IC50
[7] = wild-type EZH2 (rPRC2), read-out: EZH2 IC50

EZH2 (rPRC2), sequence (Q15910 whole entry): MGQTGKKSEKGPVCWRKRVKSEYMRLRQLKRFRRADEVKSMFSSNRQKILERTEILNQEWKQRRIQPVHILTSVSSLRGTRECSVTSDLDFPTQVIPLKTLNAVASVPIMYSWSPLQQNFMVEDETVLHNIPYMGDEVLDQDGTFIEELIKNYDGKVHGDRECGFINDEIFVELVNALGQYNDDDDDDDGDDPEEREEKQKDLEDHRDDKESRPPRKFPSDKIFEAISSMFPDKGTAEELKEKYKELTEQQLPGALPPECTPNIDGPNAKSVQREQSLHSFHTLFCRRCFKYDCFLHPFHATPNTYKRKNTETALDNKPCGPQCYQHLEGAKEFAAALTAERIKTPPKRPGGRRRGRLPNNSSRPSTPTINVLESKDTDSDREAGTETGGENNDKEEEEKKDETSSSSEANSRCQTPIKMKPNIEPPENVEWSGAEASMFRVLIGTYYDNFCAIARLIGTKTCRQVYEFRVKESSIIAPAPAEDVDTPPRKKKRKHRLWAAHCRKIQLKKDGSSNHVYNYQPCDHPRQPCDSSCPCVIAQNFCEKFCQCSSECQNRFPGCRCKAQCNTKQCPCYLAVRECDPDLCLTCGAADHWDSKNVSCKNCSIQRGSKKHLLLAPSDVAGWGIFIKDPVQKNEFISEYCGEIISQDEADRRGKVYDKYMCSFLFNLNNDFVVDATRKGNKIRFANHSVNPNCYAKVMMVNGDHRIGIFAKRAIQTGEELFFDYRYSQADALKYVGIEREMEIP
EZH2 (rPRC2), sequence (O75530 whole entry partner): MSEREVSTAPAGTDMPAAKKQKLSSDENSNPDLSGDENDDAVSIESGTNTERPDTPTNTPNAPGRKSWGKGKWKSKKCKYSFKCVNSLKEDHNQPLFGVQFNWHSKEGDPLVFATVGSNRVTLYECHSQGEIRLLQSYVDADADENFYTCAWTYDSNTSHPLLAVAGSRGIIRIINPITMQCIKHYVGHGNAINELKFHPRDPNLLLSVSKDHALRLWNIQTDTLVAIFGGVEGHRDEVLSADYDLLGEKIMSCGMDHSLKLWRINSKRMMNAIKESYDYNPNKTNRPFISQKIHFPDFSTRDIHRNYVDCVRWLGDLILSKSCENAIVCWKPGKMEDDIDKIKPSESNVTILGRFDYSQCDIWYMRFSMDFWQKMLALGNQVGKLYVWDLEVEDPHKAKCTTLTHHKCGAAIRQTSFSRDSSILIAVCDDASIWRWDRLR
EZH2 (rPRC2), sequence (Q15022 whole entry partner): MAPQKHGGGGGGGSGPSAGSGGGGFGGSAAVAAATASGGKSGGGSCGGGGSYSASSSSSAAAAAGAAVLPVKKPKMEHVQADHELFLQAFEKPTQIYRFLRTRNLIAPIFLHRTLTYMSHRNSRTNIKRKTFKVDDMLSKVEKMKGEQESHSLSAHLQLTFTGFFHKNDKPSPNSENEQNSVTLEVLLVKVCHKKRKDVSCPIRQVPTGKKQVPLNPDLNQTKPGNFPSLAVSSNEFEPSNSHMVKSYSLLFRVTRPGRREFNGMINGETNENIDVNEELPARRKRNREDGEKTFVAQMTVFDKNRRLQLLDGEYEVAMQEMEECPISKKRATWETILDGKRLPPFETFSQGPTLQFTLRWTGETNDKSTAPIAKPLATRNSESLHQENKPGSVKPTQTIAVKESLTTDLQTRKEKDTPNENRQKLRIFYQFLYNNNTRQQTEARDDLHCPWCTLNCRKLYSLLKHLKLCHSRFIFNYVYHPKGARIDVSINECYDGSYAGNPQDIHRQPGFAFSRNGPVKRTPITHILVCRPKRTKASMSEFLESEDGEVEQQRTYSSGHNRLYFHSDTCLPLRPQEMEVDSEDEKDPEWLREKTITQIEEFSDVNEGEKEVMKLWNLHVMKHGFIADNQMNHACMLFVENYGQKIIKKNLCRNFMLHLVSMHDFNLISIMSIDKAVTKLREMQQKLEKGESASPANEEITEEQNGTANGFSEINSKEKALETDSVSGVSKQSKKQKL
Y641N EZH2, sequence (Q15910 whole entry Y641N): as the sequence (Q15910 whole entry) above, with Y641N counted along it
Y641N EZH2, sequence (O75530 whole entry partner): as the sequence (O75530 whole entry partner) above
Y641N EZH2, sequence (Q15022 whole entry partner): as the sequence (Q15022 whole entry partner) above

`COc1cc(C)[nH]c(=O)c1CNC(=O)c1c(C)n(C(C)C2CCS(=O)(=O)CC2)c2ccccc12` (single isomer, unassigned) [Compound 305, (R or S)-1-(1-(1,1-dioxidotetrahydro-2H-thiopyran-4-yl)ethy1)-N-((4-methoxy-6-methyl-2-oxo-1,2-dihydropyridin-3-yl)methy1)-2-methyl-1H-indole-3-carboxamide] showed an IC50 [1, 3] of 100 to 1000 nM and an IC50 [2, 4] of less than 100 nM.
With `Cc1cc(C)c(CNC(=O)c2c(C)n(C(C)c3ccccc3)c3ncccc23)c(=O)[nH]1` (single isomer, unassigned) [Compound 117, N-((4,6-dimethyl-2-oxo-1,2-dihydropyridin-3-yl)methyl)-2-methyl-1-(1-phenylethyl)-1H-pyrrolo[2,3-b]pyridine-3-carboxamide] the IC50 ([1]; read-out: Y641N EZH2 IC50, Y641N mutant EZH2, H3K27Me2 oligonucleosome substrate) was 100 to 1000 nM.
With `CCC(C)n1c(C)c(C(=O)NCc2c(C)cc(C)[nH]c2=O)c2cccnc21` (single isomer, unassigned) [Compound 195, (R or S)-1-(sec-butyl)-N-((4,6-dimethyl-2-oxo-1,2-dihydropyridin-3-yl)methyl)-2-methyl-1H-pyrrolo[2,3-b]pyridine-3-carboxamide] the “Y641N EZH2 IC50” value [1, 5] was “*(0.5 μM)” and the IC50 [2, 4] was 100 to 1000 nM.
`COCC(C)n1c(C)c(C(=O)NCc2c(OC)cc(C3CC3)[nH]c2=O)c2cccnc21` (racemic) [Compound 260, (±)-N-((6-cyclopropyl-4-methoxy-2-oxo-1,2-dihydropyridin-3-yl)methyl)-1-(1-methoxypropan-2-yl)-2-methyl-1H-pyrrolo[2,3-b]pyridine-3-carboxamide] gave an IC50 [1, 3] of 1000 to 10000 nM and an IC50 [2, 4] of 100 to 1000 nM.
`COc1cc(C)[nH]c(=O)c1CNC(=O)c1c(C)n(C(C)COc2ccccn2)c2ncccc12` (racemic) [Compound 251, (±)-N-((4-methoxy-6-methyl-2-oxo-1,2-dihydropyridin-3-yl)methyl)-2-methyl-1-(1-(pyridine-2-yloxy)propan-2-yl)-1H-pyrrolo[2,3-b]pyridine-3-carboxamide] showed an IC50 [1, 6] of 100 to 1000 nM and an IC50 [2, 7] of 100 to 1000 nM.
`COc1cc(C)[nH]c(=O)c1CNC(=O)c1c(C)n(C(C)C(C)OC)c2cc(S(C)(=O)=O)ccc12` (stereo not drawn) [Compound 323, N-((4-methoxy-6-methyl-2-oxo-1,2-dihydropyridin-3-yl)methyl)-1-(3-methoxybutan-2-yl)-2-methyl-6-(methylsulfonyl)-1H-indole-3-carboxamide] showed an IC50 [1, 3] of 100 to 1000 nM and an IC50 [2, 4] of less than 100 nM.
With `COc1ccccc1C(C)n1c(C)c(C(=O)NCc2c(C)cc(C)[nH]c2=O)c2ccccc21` (racemic) [Compound 186, (±)-N-((4,6-dimethyl-2-oxo-1,2-dihydropyridin-3-yl)methyl)-1-(1-(2-methoxyphenyl)ethyl)-2-methyl-1H-indole-3-carboxamide] the IC50 [1, 3] was 100 to 1000 nM and the IC50 [2, 4] was 100 to 1000 nM.
`Cc1cc(C)c(CNC(=O)c2c(C)n(C(C)c3ccccc3)c3c(=O)n(C)ccc23)c(=O)[nH]1` (racemic) [Compound 139, N-((4,6-dimethyl-2-oxo-1,2-dihydropyridin-3-yl)methyl)-2,6-dimethyl-7-oxo-1-(1-phenylethyl)-6,7-dihydro-1H-pyrrolo[2,3-c]pyridine-3-carboxamide] showed an IC50 [1, 6] of 1000 to 10000 nM and an IC50 [2, 7] of 100 to 1000 nM.
`Cc1cc(C)c(CNC(=O)c2c(C3CC3)n(C(C)c3ccccc3)c3ccccc23)c(O)n1` (racemic) [Compound 131, (±)-2-cyclopropyl-N-((2-hydroxy-4,6-dimethylpyridin-3-yl)methyl)-1-(1-phenylethyl)-1H-indole-3-carboxamide] was tested, and the “Y641N EZH2 IC50” value [1, 5] was “*(1.0 μM)” and the “EZH2 IC50” value ([2]; wild-type EZH2 (rPRC2)) was “*(1.0 μM)”.
`COc1nccc(C(C)n2c(C)c(C(=O)NCc3c(C)cc(C)[nH]c3=O)c3cccnc32)n1` (racemic) [Compound 233, (±)-N-((4,6-dimethyl-2-oxo-1,2-dihydropyridin-3-yl)methyl)-1-(1-(2-methoxypyrimidin-4-yl)ethyl)-2-methyl-1H-pyrrolo[2,3-b]pyridine-3-carboxamide] gave an IC50 [1, 3] of 1000 to 10000 nM and an IC50 [2, 4] of 100 to 1000 nM.
In the case of `Cc1cc(C)c(CNC(=O)c2c(-c3ccccc3)n(C(C)c3ccccc3)c3ccccc23)c(O)n1` (single isomer, unassigned) [Compound 446, (R or S)-N-((2-hydroxy-4,6-dimethylpyridin-3-yl)methyl)-2-phenyl-1-(1-phenylethyl)-1H-indole-3-carboxamide], the “EZH2 IC50” value ([2]; wild-type EZH2 (rPRC2)) is reported as “*(10 uM)”.
In the case of `Cc1cc(C)c(CNC(=O)c2c(C)n(C(C)CN3CCCCC3)c3ncccc23)c(=O)[nH]1` (racemic) [Compound 272, (±)-N-((4,6-dimethyl-2-oxo-1,2-dihydropyridin-3-yl)methyl)-2-methyl-1-(1-(piperidin-1-yl)propan-2-yl)-1H-pyrrolo[2,3-b]pyridine-3-carboxamide], the “Y641N EZH2 IC50” value [1, 5] is reported as “*(10 μM)” and the IC50 [2, 4] is reported as 1000 to 10000 nM.
`COc1cc(C)[nH]c(=O)c1CNC(=O)c1c(C)n(C(C)C(C)OC)c2ncccc12` (single isomer, unassigned) [Compound 302, N-((4-methoxy-6-methyl-2-oxo-1,2-dihydropyridin-3-yl)methyl)-1-((2R or 2S, 3R or 3S)-3-methoxybutan-2-yl)-2-methyl-1H-pyrrolo[2,3-b]pyridine-3-carboxamide] showed an IC50 [1, 3] of 1000 to 10000 nM and an IC50 [2, 4] of 100 to 1000 nM.
In the case of `COCC(C)n1c(C)c(C(=O)NCc2c(OC)cc(C)[nH]c2=O)c2ccc(N3CCNCC3)nc21` (racemic) [Compound 295, (±)-N-((4-methoxy-6-methyl-2-oxo-1,2-dihydropyridin-3-yl)methyl)-1-(1-methoxypropan-2-yl)-2-methyl-6-(piperazin-1-yl)-1H-pyrrolo[2,3-b]pyridine-3-carboxamide], the IC50 [1, 6] is reported as 1000 to 10000 nM and the IC50 [2, 7] is reported as 100 to 1000 nM.
`Cc1cc(C)c(CNC(=O)c2c(C)n([C@H](C)c3ccccc3)c3nc(C(C)C)ncc23)c(O)n1` [Compound 177, (R)-N-((2-hydroxy-4,6-dimethylpyridin-3-yl)methyl)-2-isopropyl-6-methyl-7-(1-phenylethyl)-7H-pyrrolo[2,3-d]pyrimidine-5-carboxamide] gave an IC50 [1, 3] of 100 to 1000 nM and an IC50 [2, 4] of less than 100 nM.
Work on `Cc1cc(C)c(CNC(=O)c2c(C)n(-c3cccc(C)c3C)c3ccccc23)c(=O)[nH]1` [Compound 173, N-((4,6-dimethyl-2-oxo-1,2-dihydropyridin-3-yl)methyl)-1-(2,3-dimethylphenyl)-2-methyl-1H-indole-3-carboxamide] yielded an IC50 [1, 6] of 100 to 1000 nM and an IC50 [2, 7] of less than 100 nM.
`CCC(C)n1c(C)c(C(=O)NCc2c(C)cc(C)[nH]c2=O)c2cccnc21` (single isomer, unassigned) [Compound 196, (R or S)-1-(sec-butyl)-N-((4,6-dimethyl-2-oxo-1,2-dihydropyridin-3-yl)methyl)-2-methyl-1H-pyrrolo[2,3-b]pyridine-3-carboxamide] gave an IC50 [1, 3] of 100 to 1000 nM.
`COc1cc(C)[nH]c(=O)c1CNC(=O)c1c(C)n(C(C)c2ccccc2)c2ccccc12` (single isomer, unassigned) [Compound 115, (S or R)N-((4-methoxy-6-methyl-2-oxo-1,2-dihydropyridin-3-yl)methyl)-2-methyl-1-(1-phenylethyl)-1H-indole-3-carboxamide] was tested, and the IC50 ([2]; read-out: EZH2 IC50, wild-type EZH2 (rPRC2)) was less than 100 nM.
`Cc1cc(C)c(CNC(=O)c2cnn(C(C)c3ccccc3)c2C)c(O)n1` (single isomer, unassigned) [Compound 108, (R or S)—N-((2-hydroxy-4,6-dimethylpyridin-3-yl)methyl)-5-methyl-1-(1-phenylethyl)-1H-pyrazole-4-carboxamide] was tested, and the IC50 [2, 7] was greater than 10000 nM.
